Like-named read-outs stand apart in the source and are kept apart here. Blank lines part the entries; values can stand above or below the molecule they belong to.
Columns and labels:
[1] = DDI study: pharmacokinetics of fedratinib in rats with or without antifungal drugs; type: in vivo, Sprague-Dawley (SD) rats; conditions: for AUC(0-inf) / AUC(0-t) / Cmax / Tmax / half-life / CL/F / MRT last / MRT inf: male, Sprague-Dawley, rat, plasma, po, 40 mg/kg, 40 mg/kg fedratinib oral gavage, n = 6, Mean ± SD; for CL/F: read-out: CLz/F (converted); for MRT last: read-out: MRT0→t; for MRT inf: read-out: MRT0→∞
Excerpt: The UPLC-MS/MS procedures were developed and validated to detect fedratinib concentration in plasma to support an investigational study in healthy male Sprague-Dawley (SD) rats (weighing 200 ± 20 g), which were purchased from Laboratory Animal Center of Wenzhou Medical University (Wenzhou, China). The protocols and procedures of the animal experiment were checked in accordance with the regulations defined by Wenzhou Medical University Animal Care and Use Committee (wydw 2018-0002). Before experiment, rats were housed in the environmentally controlled feeding room, and had free access to the water and food.
After 30 min, each rat was administered 40 mg/kg fedratinib by oral gavage. Then, at the time points of 0, 0.333, 0.667, 1, 2, 4, 6, 9, 12, 24, and 48 h, heparinized 1.5 ml polythene tubes were used to collect the blood samples with approximate volume of 0.3 ml. Subsequently, plasma sample (100 µL) was separated and gained after centrifugation of the whole blood samples at room temperature for 10 min with the speed of 4,000 g, and all the plasma samples were placed and held at −80 °C prior to analysis.
Drug and Statistics (DAS) 2.0 software (Shanghai University of Traditional Chinese Medicine, China) was used to analysis the main pharmacokinetic parameters of fedratinib in rats through non-compartmental approach. The comparisons of the main pharmacokinetic parameters of different groups were conducted in one-way analysis of variance equipped with the Dunnett’s test by Statistical Package for the Social Sciences (SPSS Inc., Chicago, IL, United States) version 17.0 software. In any case, if the value of p was below 0.05, it was deemed to be statistically significant.

[2] = Stability of fedratinib in rat plasma under different conditions (UPLC-MS/MS); type: in vitro ADME; conditions: for Stability RE (%): n = 5
Description: The stability of the analyte in rat plasma under various conditions at LQC and HQC concentration levels (n = 5) was assessed, which were subjected to at room temperature for about 2 h, in the auto-sampler for 6 h at 10 °C prior to analysis, three freeze-thaw cycles (−80 °C to room temperature), and also storage at −80 °C for 21 days. The stability results of this assay in rat plasma should be acceptable when five replicates of QC samples at LQC and HQC concentrations were evaluated and compared with the real concentrations.

[3] = healthy volunteers, 2015, cited from earlier work
[4] = parameters: method as in Ogasawara et al., 2020; conditions: a strong CYP3A4 inhibitor, ref Ogasawara et al., 2020; cited from earlier work
[5] = Group A: control (0.5% CMC-Na) 30 min before
[6] = Group B: 20 mg/kg isavuconazole 30 min before
[7] = Group C: 20 mg/kg posaconazole 30 min before
[8] = Group D: 20 mg/kg fluconazole 30 min before
[9] = Group E: 20 mg/kg itraconazole 30 min before
[10] = 20 mg/kg antifungal 30 min before 40 mg/kg fedratinib oral

Key pharmacokinetic parameters (AUC0→t, AUC0→∞, MRT0→t, MRT0→∞, t1/2, Tmax, CLz/F, Cmax) compared with control Group A ([1]; fedratinib co-administrated with posaconazole (Group C)): no significant differences | AUC(0-inf) [1, 5]: 2.15 ± 0.396 µg·h/mL | AUC(0-t) [1, 5]: 2.01 ± 0.309 µg·h/mL | Cmax [1, 5]: 0.101 ± 0.0129 µg/mL | Tmax [1, 5]: 5.43 ± 0.98 h | half-life [1, 5]: 11.1 ± 2.72 h | CL/F [1, 5]: 19.2 L/h/kg | MRT last [1, 5]: 14.4 ± 1.41 h | MRT inf [1, 5]: 15.6 ± 1.65 h | AUC(0-inf) [1, 6]: 2.72 ± 0.427 µg·h/mL | AUC(0-t) [1, 6]: 2.59 ± 0.406 µg·h/mL | Cmax [1, 6]: 0.123 ± 0.0173 µg/mL | Tmax [1, 6]: 6.4 ± 1.34 h | half-life [1, 6]: 11.1 ± 2.9 h | CL/F [1, 6]: 14.8 L/h/kg | MRT last [1, 6]: 14.9 ± 0.87 h | MRT inf [1, 6]: 15.5 ± 1.34 h | AUC(0-inf) [1, 7]: 2.51 ± 0.26 µg·h/mL | AUC(0-t) [1, 7]: 2.32 ± 0.202 µg·h/mL | Cmax [1, 7]: 0.0981 ± 0.0166 µg/mL | Tmax [1, 7]: 6 ± 1.08 h | half-life [1, 7]: 11.8 ± 2.9 h | CL/F [1, 7]: 16.6 L/h/kg | MRT last [1, 7]: 14.3 ± 1.21 h | MRT inf [1, 7]: 14.6 ± 1.32 h | AUC(0-inf) [1, 8]: 3.89 ± 0.68 µg·h/mL | AUC(0-t) [1, 8]: 3.8 ± 0.653 µg·h/mL | Cmax [1, 8]: 0.232 ± 0.0331 µg/mL | Tmax [1, 8]: 7.8 ± 1.64 h | half-life [1, 8]: 10.9 ± 2.38 h | CL/F [1, 8]: 10.6 L/h/kg | MRT last [1, 8]: 13.4 ± 1.3 h | MRT inf [1, 8]: 13.9 ± 1.36 h | AUC(0-inf) [1, 9]: 3.32 ± 0.383 µg·h/mL | AUC(0-t) [1, 9]: 3.13 ± 0.317 µg·h/mL | Cmax [1, 9]: 0.187 ± 0.0222 µg/mL | Tmax [1, 9]: 7.2 ± 1.64 h | half-life [1, 9]: 10.2 ± 3.39 h | CL/F [1, 9]: 12.2 L/h/kg | MRT last [1, 9]: 14.5 ± 1.95 h | MRT inf [1, 9]: 15.2 ± 2.1 h | Stability RE (%) ([2]; 1.5 ng/ml, Auto-sampler 10°C, 6 h): 8.3% | Stability RE (%) ([2]; 1.5 ng/ml, Room temperature, 2 h): 14.1% | Stability RE (%) ([2]; 1.5 ng/ml, Three freeze-thaw (−80 °C to room temperature)): −4.6% | Stability RE (%) ([2]; 1.5 ng/ml, −80°C, 21 days): 2.7% | Stability RE (%) ([2]; 400 ng/ml, Auto-sampler 10°C, 6 h): 11.4% | Stability RE (%) ([2]; 400 ng/ml, Room temperature, 2 h): 10.3% | Stability RE (%) ([2]; 400 ng/ml, Three freeze-thaw (−80 °C to room temperature)): 12.5% | Stability RE (%) ([2]; 400 ng/ml, −80°C, 21 days): 14.2% | Deviation from nominal concentrations (stability) ([2]; LQC and HQC, all four storage conditions): < 15%
Compound: Cc1cnc(Nc2ccc(OCCN3CCCC3)cc2)nc1Nc1cccc(S(=O)(=O)NC(C)(C)C)c1 [Fedratinib]
Impact of pantoprazole on the pharmacokinetics of fedratinib ([3]; 40 mg pantoprazole once daily with a single dose of 500 mg fedratinib, ref Xu et al.): no significantly impact | Effect of intake of food on pharmacokinetics and bioavailability of fedratinib ([3]; ref Zhang et al.): slightly affect | Effect of ketoconazole on systemic exposure of fedratinib [4]: increases the systemic exposure of fedratinib

Compound: C[C@@H](c1nc(-c2ccc(C#N)cc2)cs1)[C@](O)(Cn1cncn1)c1cc(F)ccc1F [isavuconazole]
Inhibitory effect on fedratinib metabolism [1, 10]: inhibitory effect on fedratinib metabolism to a certain extent | Order of inhibitory effect on fedratinib metabolism [1, 10]: fluconazole > itraconazole > isavuconazole > posaconazole

Compound: CCC(C)n1ncn(-c2ccc(N3CCN(c4ccc(OCC5COC(Cn6cncn6)(c6ccc(Cl)cc6Cl)O5)cc4)CC3)cc2)c1=O (stereo not drawn) [itraconazole]
Order of inhibitory effect on fedratinib metabolism [1, 10]: fluconazole > itraconazole > isavuconazole > posaconazole

Compound: CC[C@@H]([C@H](C)O)n1ncn(-c2ccc(N3CCN(c4ccc(OC[C@@H]5CO[C@@](Cn6cncn6)(c6ccc(F)cc6F)C5)cc4)CC3)cc2)c1=O [posaconazole]
Order of inhibitory effect on fedratinib metabolism [1, 10]: fluconazole > itraconazole > isavuconazole > posaconazole

Reference: publication PMC7892954, “In vivo Pharmacokinetic Drug-Drug Interaction Studies Between Fedratinib and Antifungal Agents Based on a Newly Developed and Validated UPLC/MS-MS Method” (Frontiers in Pharmacology, 2021)
